Tested on: d(CTG)16 (DNA, repeat) GGGCTGCTGCTGCTGCTGCTGCTGCTGCTGCTGCTGCTGCTGCTGCTGCTGCCC
Assay: ITC
Settings: monomer alone

Row | Compound | Kd [µM]
1 | N=C(NCCCCNc1nc(N)nc(NCc2ccc(N)cc2)n1)c1ccc(C(=N)NCCCCNc2nc(N)nc(NCc3ccc(N)cc3)n2)cc1 | > 100
2 | N=C(NCCCCNc1nc(N)nc(NCc2ccc(C=O)cc2)n1)c1ccc(C(=N)NCCCCNc2nc(N)nc(NCc3ccc(C=O)cc3)n2)cc1 | 81.6 ± 0.9

Source: paper PMC9733911 (2022)
